Results published in PMC3162996 (Journal of natural products, 2011).
Entries after “also recorded” stand apart in the source; their conditions may differ.

Assays:
[1] = system: transcription factor AP-1; assay: AP-1 assay; assay type: cell-based; details: HEK293T AP-1 β-lactamase reporter; 1 h pre-incubation, then TPA, 18 h
[2] = Floridian collections of Lyngbya confervoides; ref [6],[7]; cited from earlier work

Row | Substance | inhibitory activity against AP-1 (in words) [1] | cytotoxicity (in words) [2]
1 | Grassypeptolide F [compound 1] | moderately active; also recorded: moderate inhibitory activity | 
2 | Grassypeptolide G [compound 2] | moderately active; also recorded: moderate inhibitory activity | 
3 | grassypeptolide C [compound 5] |  | cytotoxic
